Test system: NIDD STZ rats
Test: Streptozotocin-induced non-insulin-dependent diabetes (NIDD) rat model: glycaemia, cholesterol, triglycerides
Type: in vivo, male Wistar rats
Conditions: for Cholesterol / Glycaemia / Triglycerides: STZ (45 mg/kg) diabetic male Wistar rats, oral treatment at the doses in Table 1, measured 23 days after STZ, mean ± SEM, 10 rats per group
Protocol: Non-insulin-dependent diabetes (NIDD) is induced by injecting streptozotocin into male wistar rats. […] The procedure followed is as follows. […] Two weeks after this treatment, blood is taken and the glycaemia is measured. […] The animals then receive, orally, either metformin alone, or a fibrate alone, or a combination of the two in the doses indicated in Table 1 below. 23 days after the injection of streptozotocin, the animals are sacrificed and the following parameters are determined: glycaemia, cholesterol and triglycerides. […] The Student t test is carried out to evaluate the significance of the results obtained.

SMILES | Cholesterol [g/L] | Glycaemia [g/L] | Triglycerides [g/L] | Glycaemia (listed as bezafibrate) [g/L] | Glycaemia (listed as metformin) [g/L] | Effects on the levels of cholesterol and of triglycerides when administered alone (metformin alone, in animals, such as in man)
CC(C)(Oc1ccc(CCNC(=O)c2ccc(Cl)cc2)cc1)C(=O)O [Bezafibrate, bezafibrate] | 0.52 ± 0.05 | 2.20 ± 0.21 | 0.81 ± 0.11 | 2.20 |  | 
CCOC(=O)C(C)(C)Oc1ccc(Cl)cc1 [Clofibrate, clofibrate] | 0.63 ± 0.03 | 2.58 ± 0.11 | 0.93 ± 0.11 |  |  | 
CC(C)OC(=O)C(C)(C)Oc1ccc(C(=O)c2ccc(Cl)cc2)cc1 [Fenofibrate, fenofibrate] | 0.45 ± 0.02 |  | 0.61 ± 0.10 |  |  | 
CN(C)C(=N)N=C(N)N [Metformin, metformin] | 0.61 ± 0.03 | 1.74 ± 0.14 | 0.85 ± 0.10 |  | 1.74 | effects on decreasing the levels of cholesterol and of triglycerides
